# Laboratory results reported in patent US10711006B2, “Selective Bruton's tyrosine kinase inhibitor and use thereof” (HANGZHOU HERTZ PHARMACEUTICAL CO., LTD., priority 2016, dated 2020).
# Columns and labels:
# [1] = system: human diffuse large B lymphoma (TMD-8); assay: In-vitro tumor cell proliferation inhibition (CCK-8), TMD-8; details: TMD8, 72 h, read-out: Tumor cell proliferation inhibitory activity (IC50, nM) TMD-8
# Experimental: (§11) The in-vitro antitumor activity assay was carried out on the synthesized compound by using different solid tumors and leukemia cell lines:
# (§12) Cell lines: human lung cancer cell (A549), human mantle cell lymphoma (MINO), diffuse giant B-cell lymphoma (OCI-LY10), and human diffuse large B lymphoma (TMD-8).
# (§13) Preparation method of the drug: the drug was dissolved in DMSO to make a 10 mM stock solution, and then the stock solution was diluted in a certain ratio to obtain 5 different concentrations (test concentration 100×). In-vitro culture of tumor cells:
# (§14) The tumor cells A549, MINO, OCI-LY10, and TMD-8 were seeded in a 96-well plate at 4000 cells/200 μL/well and then incubated overnight at 37° C. in a 5% CO2 cell culture incubator. 2 μL of the compound was added to each well to final concentrations of 50 μM, 10 μM, 2 μM, 0.4 μM, and 0.08 μM and then incubated for 72 hours at 37° C. in a 5% CO2 cell incubator, with DMSO (2%) as a control group. […] Wells loaded with the corresponding amount of cell culture fluid the and CCK-8 solution but no cells were considered as blank controls. The absorbance (OD value) was measured at 450 nm using a microplate reader, and the obtained data was used to calculate IC50.
# [2] = system: diffuse giant B-cell lymphoma (OCI-LY10); assay: In-vitro tumor cell proliferation inhibition (CCK-8), OCI-LY10; details: Homo sapiens, OCI-Ly10, 72 h, read-out: Tumor cell proliferation inhibitory activity (IC50, nM) OCI-LY10
# Experimental: as §11, §12, §13, §14
# [3] = system: arthritis induced by anti-collagen antibodies and lipopolysaccharides; assay: Rheumatoid arthritis model induced by anti-collagen antibodies and lipopolysaccharides; type: in vivo, Balb/c mice
# Experimental: In Balb/c mice, arthritis was induced by administration of anti-collagen antibodies and lipopolysaccharides (Nandakumar et al., Am. J. Pathol. 2003, 163: 1827-1837).
# The specific method was as follows: On Day 0, female Balb/c mice were intravenously injected with anti-type II collagen ChemicomAb mixture in a dose of 100 mg/kg, and on Day 1, lipopolysaccharide was intraperitoneally injected in a dose of 1.25 mg/kg. From Day 2 to Day 12, Compounds 15a, 17a, 24a and 24e were orally administered once a day in a dose of 10 mg/kg. On Day 13 after abdominal anesthesia, […] of blood was taken from the femoral artery and centrifuged at 3000 r/min for 20 minutes, serum was taken to detect IL-1β with a test kit, and related tissue samples were observed.
# [4] = target: CSK (Homo sapiens (Human), UniProt P41240); assay: Kinase selectivity experiment, CSK; type: biochemical; details: read-out: Inhibitory activity against CSK (IC50)
# Experimental: (§1) A 1× kinase base buffer and a reaction stop buffer for respective kinases in the experiment were prepared as required.
# (§2) Preparation of Compounds to be Tested:
# (§3) 2) diluting each compound at a 5-fold concentration gradient in a 96-well plate to 6 to 7 concentrations and ensuring that the drug volume in each well was 10 μl; and at the same time adding 100 μl of DMSO to prepare a blank control group and also preparing a negative control group without the enzyme substrate; and
# (§4) 3) preparing another 96-well plate, adding 10 μl of each of the above compounds to 90 μl of the 1× kinase base buffer and mixing for 10 minutes to be uniform.
# (§5) Preparation of the Plate to be Tested:
# (§6) 1) 5 μl of the mixed solution prepared as above in the 96-well plate was taken and transferred to a 384-well plate, with two replicate wells for each compound.
# (§7) 1) Preparing a 2.5× kinase solution and adding a corresponding 1× kinase base buffer;
# (§8) 2) preparing a 2.5× polypeptide solution and adding FAM-labeled polypeptide and ATP in the 1× kinase base buffer; and
# (§9) 3) adding 10 μl of 2.5× kinase solution to a 384-well plate to be tested, placing in a room-temperature environment for 10 minutes, and then adding 10 μl of the 2.5× polypeptide solution, reacting at 28° C. for 1 hour, and then adding 25 μl of a reaction stop buffer.
# (§10) The Caliper program reads the plate and uses the data to obtain the IC50 values of the corresponding compounds against kinases.
# [5] = target: HCK (Homo sapiens (Human), UniProt P08631); assay: Kinase selectivity experiment, HCK; type: biochemical; details: read-out: Inhibitory activity against HCK (IC50)
# Experimental: as §1, §2, §3, §4, §5, §6, §7, §8, §9, §10
# [6] = system: human mantle cell lymphoma (MINO); assay: In-vitro tumor cell proliferation inhibition (CCK-8), MINO; details: 72 h, read-out: Tumor cell proliferation inhibitory activity (IC50, μM) MINO
# Experimental: as §11, §12, §13, §14
# [7] = system: Mino subcutaneous xenograft tumor; assay: In-vivo pharmacodynamic study on Mino subcutaneous xenograft tumor models; details: CB17 SCID mice, intragastric, twice a day
# Experimental: In CB17 SCID mice, 0.2 mL of cell suspension containing 5×10^6 Mino cells was subcutaneously inoculated into the right back of each mouse, and when the mean tumor volume reaches approximately 139.94 mm3 (day 26 after inoculation), group administration was started (intragastric administration, twice a day, 14 days in total). Animals were monitored daily for health and mortality, and tumor diameters were measured twice a week using vernier calipers to see if tumor growth could be inhibited, delayed, or cured.
# [8] = target: BLK (Homo sapiens (Human), UniProt P51451); assay: Kinase selectivity experiment, BLK; type: biochemical; details: read-out: Inhibitory activity against BLK (IC50)
# Experimental: as §1, §2, §3, §4, §5, §6, §7, §8, §9, §10
# [9] = target: hERG potassium channel (Homo sapiens (Human), UniProt Q12809); assay: hERG potassium channel inhibitory activity, manual patch clamp in CHO cells; type: cell-based; details: CHO cells stably expressing hERG, whole-cell patch clamp
# Experimental: The cells used in this experiment were CHO cell lines transfected with HergCdna and stably expressing Herg channels (supplied by Sophion Bioscience, Denmark). The cells were cultured in a medium containing the following components (all from Invitrogen): Ham's F12 medium, 10% (v/v) inactivated fetal bovine serum, 100 μg/ml hygromycin B, 100 μg/ml Geneticin. […] 24 to 48 hours before an electrophysiological experiment, CHO Herg cells were transferred to circular slides placed in the culture dishes and grow with the same culture liquid under the same culture conditions as above. The density of CHO Herg cells on each circular slide was required to reach such a value that most cells were independent and stand alone.
# 2. Treatment and Dilution of a Compound
# Before the test, the compound was first diluted with DMSO at gradient to make stock solutions with concentrations of 10, 3, 1, 0.3 and 0.1 Mm and the stock solutions were then diluted with extracellular fluid to a final Mm test concentration. Except that the DMSO concentration in the 30 Mm compound test solution was 0.3%, the final concentration of DMSO in each of the compound solutions with other concentrations was 0.1%. The test concentration of a positive control Cisapridewas 0.1 Mm. All compound solutions were conventionally sonicated and shaken for 5 to 10 minutes to ensure complete dissolution of the compound.
# 3. Electrophysiological Recording System and Data Analysis
# This experiment uses a manual patch clamp system (HEKA EPC-10 signal amplifier and digital conversion system, purchased from HEKA Electronics, Germany) for the recording of whole cell currents. The circular slides with CHO Herg cells growing on the surfaces were placed in an electrophysiological recording slot under an inverted microscope. The extracellular fluid was used for continuous perfusion in the recording slot (approximately lml per minute). The experimental procedure uses a conventional whole-cell patch clamp current recording technique. Unless otherwise stated, the experiment was carried out at regular room temperature ([…]). The cells were clamped at a voltage of −80 Mv. The cell clamp voltage was depolarized to +20 Mv to activate the Herg potassium channel, and 5 seconds later, it was clamped to −50 Mv to eliminate inactivation and generate tail current. The peak of the tail current was used as the value of the Herg current. After the hERG potassium current recorded in the above step was stabilized under the continuous extracellular fluid perfusion in the recording slot, the drug to be tested can be superimposed to the perfusion until the inhibitory effect of the drug on the hERG current reaches a steady state. Generally, the criterion for determine whether or not the stable state was reached was that the recent three consecutive current recording lines were coincident. After the steady state was reached, extracellular fluid perfusion was carried out for flushing until the hERG current returns to the magnitude before the drug was added. One cell may be used for testing one or more drugs, or multiple concentrations of the same drug, and flushing with extracellular fluid was carried out between tests of different drugs. Cisapride (purchased from Sigma) was used in the experiment as a positive control to ensure that the cells used were of normal quality. The test data was analyzed by data analysis software provided by HEKA Patchmaster, Microsoft Excel and Graphpad Prism.
# [10] = target: ITK (Homo sapiens (Human), UniProt Q08881); assay: Kinase selectivity experiment, ITK; type: biochemical; details: read-out: Inhibitory activity against ITK (IC50)
# Experimental: as §1, §2, §3, §4, §5, §6, §7, §8, §9, §10
# [11] = target: JAK3 (Homo sapiens (Human), UniProt P52333); assay: Kinase selectivity experiment, JAK3; type: biochemical; details: read-out: Inhibitory activity against JAK3 (IC50)
# Experimental: as §1, §2, §3, §4, §5, §6, §7, §8, §9, §10
# [12] = target: FGR (Homo sapiens (Human), UniProt P09769); assay: Kinase selectivity experiment, FGR; type: biochemical; details: read-out: Inhibitory activity against FGR (IC50)
# Experimental: as §1, §2, §3, §4, §5, §6, §7, §8, §9, §10
# [13] = system: human lung cancer cell (A549); assay: In-vitro tumor cell proliferation inhibition (CCK-8), A549; details: A549, 72 h, read-out: Tumor cell proliferation inhibitory activity (IC50, μM) A549
# Experimental: as §11, §12, §13, §14
# [14] = target: FLT3 (Homo sapiens (Human), UniProt P36888); assay: Kinase selectivity experiment, FLT3; type: biochemical; details: read-out: Inhibitory activity against FLT3 (IC50)
# Experimental: as §1, §2, §3, §4, §5, §6, §7, §8, §9, §10
# Sequence of HCK (P08631 whole entry, species assumed): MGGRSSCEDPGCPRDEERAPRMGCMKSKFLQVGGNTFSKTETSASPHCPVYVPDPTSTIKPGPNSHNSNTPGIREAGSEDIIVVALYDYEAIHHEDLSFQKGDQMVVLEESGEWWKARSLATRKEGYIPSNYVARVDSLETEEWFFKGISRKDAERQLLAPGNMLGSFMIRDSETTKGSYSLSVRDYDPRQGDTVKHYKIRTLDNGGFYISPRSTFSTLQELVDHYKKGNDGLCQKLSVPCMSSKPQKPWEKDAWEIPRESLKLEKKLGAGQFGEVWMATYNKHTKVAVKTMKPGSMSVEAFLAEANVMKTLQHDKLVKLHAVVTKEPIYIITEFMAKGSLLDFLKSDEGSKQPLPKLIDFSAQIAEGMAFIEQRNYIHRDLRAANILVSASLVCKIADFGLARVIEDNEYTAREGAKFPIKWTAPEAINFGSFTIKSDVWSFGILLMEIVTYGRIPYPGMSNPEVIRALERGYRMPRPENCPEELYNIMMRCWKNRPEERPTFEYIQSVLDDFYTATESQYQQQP
# Sequence of hERG potassium channel (Q12809 whole entry): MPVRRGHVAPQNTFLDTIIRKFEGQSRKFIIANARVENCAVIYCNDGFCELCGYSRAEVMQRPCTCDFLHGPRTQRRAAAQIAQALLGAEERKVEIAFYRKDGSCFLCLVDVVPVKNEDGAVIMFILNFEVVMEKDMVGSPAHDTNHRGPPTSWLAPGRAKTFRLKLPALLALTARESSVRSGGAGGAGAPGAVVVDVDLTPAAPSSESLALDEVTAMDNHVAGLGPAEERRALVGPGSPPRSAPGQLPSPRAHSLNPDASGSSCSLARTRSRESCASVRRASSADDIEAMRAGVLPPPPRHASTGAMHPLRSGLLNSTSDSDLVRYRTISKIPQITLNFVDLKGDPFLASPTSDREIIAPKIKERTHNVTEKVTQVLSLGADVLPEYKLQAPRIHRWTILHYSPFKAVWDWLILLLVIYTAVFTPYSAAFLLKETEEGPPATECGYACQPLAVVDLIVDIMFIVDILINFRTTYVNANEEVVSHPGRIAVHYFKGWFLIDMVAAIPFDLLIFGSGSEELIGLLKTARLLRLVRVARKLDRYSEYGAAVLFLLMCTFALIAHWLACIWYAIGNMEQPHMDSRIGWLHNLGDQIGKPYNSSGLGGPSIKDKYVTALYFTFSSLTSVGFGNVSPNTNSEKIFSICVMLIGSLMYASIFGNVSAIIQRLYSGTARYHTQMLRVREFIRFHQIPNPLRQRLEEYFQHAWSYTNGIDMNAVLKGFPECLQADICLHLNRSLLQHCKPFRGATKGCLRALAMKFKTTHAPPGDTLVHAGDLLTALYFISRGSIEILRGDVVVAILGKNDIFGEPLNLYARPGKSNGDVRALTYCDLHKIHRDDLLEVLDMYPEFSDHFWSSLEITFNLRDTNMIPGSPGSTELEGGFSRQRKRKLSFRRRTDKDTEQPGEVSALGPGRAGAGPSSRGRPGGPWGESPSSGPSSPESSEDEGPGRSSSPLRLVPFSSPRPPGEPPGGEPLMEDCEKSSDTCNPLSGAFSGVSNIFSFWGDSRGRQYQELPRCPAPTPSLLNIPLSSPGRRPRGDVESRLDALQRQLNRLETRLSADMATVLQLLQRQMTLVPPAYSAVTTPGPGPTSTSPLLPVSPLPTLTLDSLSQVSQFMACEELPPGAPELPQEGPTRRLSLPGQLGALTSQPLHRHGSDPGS
# Sequence of CSK (P41240 whole entry, species assumed): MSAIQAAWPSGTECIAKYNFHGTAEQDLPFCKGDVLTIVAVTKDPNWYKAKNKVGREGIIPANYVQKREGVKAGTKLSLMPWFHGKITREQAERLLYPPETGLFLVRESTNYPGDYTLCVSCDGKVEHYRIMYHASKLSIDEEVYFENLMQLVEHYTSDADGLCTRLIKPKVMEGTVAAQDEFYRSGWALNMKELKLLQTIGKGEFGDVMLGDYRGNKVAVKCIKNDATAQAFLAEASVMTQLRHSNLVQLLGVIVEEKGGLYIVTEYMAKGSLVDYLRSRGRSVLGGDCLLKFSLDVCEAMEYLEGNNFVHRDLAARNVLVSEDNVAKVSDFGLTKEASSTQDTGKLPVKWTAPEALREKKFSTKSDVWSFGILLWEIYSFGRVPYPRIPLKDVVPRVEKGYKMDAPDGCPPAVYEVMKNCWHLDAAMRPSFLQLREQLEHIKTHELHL
# Sequence of FLT3 (P36888 27-993, species assumed): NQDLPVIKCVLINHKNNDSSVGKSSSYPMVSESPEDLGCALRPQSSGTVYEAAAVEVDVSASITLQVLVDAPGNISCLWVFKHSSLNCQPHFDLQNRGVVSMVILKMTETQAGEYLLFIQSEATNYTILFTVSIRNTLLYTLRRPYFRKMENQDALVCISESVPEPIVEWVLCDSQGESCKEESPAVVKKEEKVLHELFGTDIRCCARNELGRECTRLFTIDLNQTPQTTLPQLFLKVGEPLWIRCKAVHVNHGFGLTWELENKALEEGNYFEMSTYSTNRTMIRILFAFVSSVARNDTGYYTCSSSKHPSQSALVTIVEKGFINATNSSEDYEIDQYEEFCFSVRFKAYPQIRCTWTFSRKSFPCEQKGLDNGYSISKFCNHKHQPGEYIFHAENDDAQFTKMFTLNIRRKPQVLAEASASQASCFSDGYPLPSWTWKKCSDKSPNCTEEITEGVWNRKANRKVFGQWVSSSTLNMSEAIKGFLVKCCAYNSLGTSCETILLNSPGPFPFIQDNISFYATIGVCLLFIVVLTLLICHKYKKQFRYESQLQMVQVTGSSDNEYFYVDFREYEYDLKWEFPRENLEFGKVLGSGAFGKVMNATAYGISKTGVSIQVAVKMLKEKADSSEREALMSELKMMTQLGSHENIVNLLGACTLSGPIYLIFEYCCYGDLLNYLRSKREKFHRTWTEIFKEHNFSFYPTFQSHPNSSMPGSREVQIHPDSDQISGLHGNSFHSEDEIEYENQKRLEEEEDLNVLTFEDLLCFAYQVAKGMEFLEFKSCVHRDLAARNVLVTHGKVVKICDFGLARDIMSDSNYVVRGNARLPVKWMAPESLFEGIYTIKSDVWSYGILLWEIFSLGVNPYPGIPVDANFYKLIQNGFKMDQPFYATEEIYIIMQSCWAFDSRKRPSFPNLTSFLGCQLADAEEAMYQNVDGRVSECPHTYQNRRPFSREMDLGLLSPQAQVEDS
# Sequence of ITK (Q08881 whole entry, species assumed): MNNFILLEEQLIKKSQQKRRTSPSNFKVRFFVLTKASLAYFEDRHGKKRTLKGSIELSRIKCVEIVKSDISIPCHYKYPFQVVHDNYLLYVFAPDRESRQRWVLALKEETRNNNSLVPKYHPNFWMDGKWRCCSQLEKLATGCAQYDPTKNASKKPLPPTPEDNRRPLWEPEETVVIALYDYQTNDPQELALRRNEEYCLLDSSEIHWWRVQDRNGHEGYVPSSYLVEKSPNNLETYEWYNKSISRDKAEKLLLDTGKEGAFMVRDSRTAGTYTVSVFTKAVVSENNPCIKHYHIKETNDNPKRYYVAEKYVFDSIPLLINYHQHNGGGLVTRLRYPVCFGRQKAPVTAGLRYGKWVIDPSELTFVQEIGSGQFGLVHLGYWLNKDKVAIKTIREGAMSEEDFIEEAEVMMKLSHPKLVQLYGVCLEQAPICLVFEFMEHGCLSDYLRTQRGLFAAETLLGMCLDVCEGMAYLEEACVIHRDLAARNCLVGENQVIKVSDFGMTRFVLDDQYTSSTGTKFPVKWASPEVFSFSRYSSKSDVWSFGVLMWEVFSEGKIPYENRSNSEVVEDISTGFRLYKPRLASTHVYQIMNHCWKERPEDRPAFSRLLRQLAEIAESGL
# Sequence of JAK3 (P52333 whole entry, species assumed): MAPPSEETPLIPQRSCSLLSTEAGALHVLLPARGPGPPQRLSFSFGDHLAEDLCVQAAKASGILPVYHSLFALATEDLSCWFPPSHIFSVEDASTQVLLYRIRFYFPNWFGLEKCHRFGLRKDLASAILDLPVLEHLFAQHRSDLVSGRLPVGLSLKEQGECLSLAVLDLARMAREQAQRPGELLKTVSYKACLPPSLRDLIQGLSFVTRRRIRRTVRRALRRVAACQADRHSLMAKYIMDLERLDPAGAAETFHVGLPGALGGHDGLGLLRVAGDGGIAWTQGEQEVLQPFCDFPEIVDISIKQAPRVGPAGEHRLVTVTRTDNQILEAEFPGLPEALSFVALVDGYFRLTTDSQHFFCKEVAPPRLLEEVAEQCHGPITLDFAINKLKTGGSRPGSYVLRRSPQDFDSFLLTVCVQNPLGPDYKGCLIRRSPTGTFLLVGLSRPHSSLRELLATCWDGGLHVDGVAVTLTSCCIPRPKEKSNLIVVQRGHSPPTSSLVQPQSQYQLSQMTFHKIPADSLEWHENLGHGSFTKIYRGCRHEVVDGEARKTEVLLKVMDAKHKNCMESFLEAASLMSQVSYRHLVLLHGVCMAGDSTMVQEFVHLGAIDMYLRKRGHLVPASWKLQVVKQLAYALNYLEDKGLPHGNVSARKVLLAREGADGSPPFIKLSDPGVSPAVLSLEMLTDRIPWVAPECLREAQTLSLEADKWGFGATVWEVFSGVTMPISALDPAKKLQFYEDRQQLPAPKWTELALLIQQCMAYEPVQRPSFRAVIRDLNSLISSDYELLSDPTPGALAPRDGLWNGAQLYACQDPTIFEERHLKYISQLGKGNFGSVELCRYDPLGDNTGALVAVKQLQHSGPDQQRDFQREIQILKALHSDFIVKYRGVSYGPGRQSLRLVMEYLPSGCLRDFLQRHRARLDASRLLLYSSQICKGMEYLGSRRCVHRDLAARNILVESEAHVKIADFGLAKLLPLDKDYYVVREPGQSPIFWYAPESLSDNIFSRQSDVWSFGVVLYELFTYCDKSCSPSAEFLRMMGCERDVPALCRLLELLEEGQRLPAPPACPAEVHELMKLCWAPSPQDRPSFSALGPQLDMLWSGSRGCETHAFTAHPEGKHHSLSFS
smiles,measurement,setting,value
"C=CC(=O)N1CCC[C@@H](n2nc(-c3ccc(Oc4ccccc4)nc3F)c3c(N)ncnc32)C1 [Compound 17a, (R)-1-(3-(4-amino-3-(2-fluoro-6-phenoxypyridin-3-yl)-1H-pyrazolo[3,4-d]pyrimidin-1-yl)piperidin-1-yl)prop-2-en-1-one]",IC50,[1],5.57 nM
same,IC50,[2],1.41 nM
same,level of IL-1β in serum (in words),"[3]; 10 mg/kg orally once a day, versus model group",significantly reduce
same,IL-1β,"[3]; serum on Day 13, 10 mg/kg orally once a day Day 2 to Day 12",17.25 ± 3.9 ng/L
same,"inflammatory cell infiltration, synovial hyperplasia, inflammatory granulation tissue formation, necrotic tissue","[3]; tissue samples after treatment, versus model group",significantly improved
same,IC50,[4],> 1000 nM
same,IC50,[5],> 1000 nM
same,IC50,[6],8.62 µM
same,TGI*(14 days) (%) calculated on the basis of tumor volume,[7],82.54%
same,TGI**(14 days) (%) calculated on the basis of tumor weight,[7],74.05%
same,IC50,[8],11 nM
same,IC50,[9],7800 nM
same,IC50,[10],> 1000 nM
same,IC50,[11],> 1000 nM
same,IC50,[12],> 1000 nM
same,IC50,[13],1.67 µM
same,IC50,[14],> 1000 nM
